The text below walks through data of publication PMC8373237 (Antimicrobial Agents and Chemotherapy, 2021).

The nature of one data set: Kinetic solubility. The data set is classed as physicochemical. As for the experimental part: […] Then, […] of 15 mM stock compound was added to make a solution of 120 μM final concentration with 0.8% DMSO. The solution was shaken at 37°C for ∼2 h. The solution was passed over a 0.7- μM glass fiber filter. Then, the solution was diluted 1:4 in acetonitrile to crash out any proteins. The solution was centrifuged at 500 × g for 10 min. Avoiding the pellet, 10 μl of supernatant was added to a fresh plate with 90 μl of acetonitrile. The final dilution is 40 times lower. Next, 10 μl of 40× dilution of solution was injected on the Orbi-trap. A 1 μM standard was used for the ratiometric comparison, and the assay was done in triplicate.

Data set [1] relates to Y. enterocolitica Ysa T3SS (YspF secretion). In kind it is cell-based, Yersinia enterocolitica.
The subject of data set [2] is P. aeruginosa PA103 T3SS (ExoU secretion). In kind it is cell-based, Pseudomonas aeruginosa.
For data set [3], the system named is Salmonella flagellar T3SS (FliC, FliD secretion). The data set is classed as cell-based, Salmonella enterica Typhimurium. Details: key to Fla fliC (Table 2): NE: No effect observed.
The test system of another data set is Y. pseudotuberculosis. In kind it is cell-based, Yersinia pseudotuberculosis. Conditions: 2xYT, 9-120 µM, 12 h.
Another data set relates to P. aeruginosa (PAO1). The data set is classed as cell-based, Pseudomonas aeruginosa.
Data set [4] has as its system Salmonella enterica Typhimurium SPI-1 T3SS (SipA, SipC secretion). The data set is classed as cell-based.
For data set [5], the system named is C. trachomatis serovar L2 in HeLa cells. As to the kind of experiment: Chlamydia infection of HeLa cells (primary and secondary infection). Also on record: key to lowest known inhibitory concentration (∼), cell-based infection assay, Chlamydia: NE: No effect observed. In kind it is cell-based, Chlamydia trachomatis. As for the experimental part: Primary infections. HeLa cell monolayers were infected with C. trachomatis serovar L2 at a multiplicity of infection (MOI) of 1.0 in the presence of one of the following compounds at 9 μM: DMSO, 4EpDN, or 4EpDN 2Sar. Cells were incubated for 24 h in the presence of the above-listed compounds at 37°C and then fixed with 4% paraformaldehyde (PFA). Cells were stained for IncA (Chlamydia inclusion membrane marker), DNA (with DAPI), and MOMP (Chlamydia major outer membrane protein) simultaneously. This method of staining allows visualization of the inclusion independent of MOMP synthesis or transport. The percentage of cells infected (i.e., stained positively for the listed Chlamydia markers) in the presence of the compounds was quantified using confocal microscopy. Quantifications of inclusion take into account both DAPI staining and indirect immunofluoresence with an antibody to MOMP. Ten randomly selected fields of view were measured per experiment. The data represent three biological replicates.
Secondary infections. HeLa cell monolayers were infected with C. trachomatis serovar L2 at an MOI of 1.0 in the presence of one of the following compounds at 9 μM: DMSO, 4EpDN, or 4EpDN 2Sar. Cells were incubated for 48 h in the presence of the above-listed compounds at 37°C. Infected cells were then lysed, and the lysate was applied to fresh HeLa monolayers to enumerate infectious particles. These secondary infections were fixed in 4% PFA at 24 hpi and were stained against MOMP and DNA. The infectious units per ml (IFU/ml) were calculated by averaging the number of infected cells in each of 10 randomly selected fields of view at ×40 magnification on a confocal microscope and multiplying this by the appropriate dilution and area factors. The data represent four biological replicates.

Data set [6] concerns Ssa-Esc T3SS, EPEC/EHEC. As to conditions: culture-based secretion assay, cited from earlier work.
Data set [7] has as its system Salmonella enterica Typhimurium SPI-1 T3SS. Conditions: cited from earlier work.
For data set [8] the test system is unchanged. Conditions: culture-based secretion assay; ref [87]; cited from earlier work.
Data set [9] concerns Yersinia pseudotuberculosis Ysc T3SS. As to conditions: culture-based secretion assay; ref [87]; cited from earlier work.
The subject of data set [10] is Ssa-Esc T3SS, EPEC/EHEC. Details: method as in PMID 33316970. Conditions: translocation assay; ref [109]; read-out: IC50, EspF translocation; cited from earlier work.
In data set [11] the test system is Yersinia pseudotuberculosis Ysc T3SS. Conditions: cited from earlier work.
In data set [12] the test system is Chlamydiales T3SS, Chlamydia. As to conditions: cell-based infection assay, ref [67], cited from earlier work.
In data set [13] the test system is Pseudomonas aeruginosa Psc T3SS. Conditions: cell-based infection assay, ref [67], cited from earlier work.
In data set [14] the test system is Ssa-Esc T3SS, EPEC/EHEC. Conditions: biochemical assay, cited from earlier work.
Data set [15] has as its system Yersinia pseudotuberculosis Ysc T3SS. Conditions: cited from earlier work. The source holds these as a separate data set.
The test system of data set [16] is Salmonella enterica Typhimurium SPI-1 T3SS. As to conditions: translocation assay, cited from earlier work.

In brackets after ≈: the same amount, converted by molar mass. Where two headings read alike, the source gives them in different places. Marks after values point to notes of the source that are not given here. Square brackets hold non-standard residues; d marks the D form. Peptide text beside a SMILES is read from it. NPrGly = CCCNCC(=O)O; Sar = CNCC(=O)O

For the compound `CCCN1CC(=O)N(C)CC(=O)N[C@@H](CC(C)C)C(=O)N[C@@H]([C@@H](C)CC)C(=O)N[C@H](CC(C)C)C(=O)N[C@H](Cc2ccccc2)C1=O` [4EpDN 2Sar, 4-EpD1,2N 2Sar] (cyclo(I[dL][dF][NPrGly][Sar]L)), the solubility in the data set “Kinetic solubility” (DMEM (no antibiotics)) and in the data set “Kinetic solubility” (M9) was 61 µM (≈ 40.1 µg/mL) in each case. The “secretion of YspF, in words” value in data set [1] is given as “did not affect its secretion”. In data set [2], the “T3SS inhibitory activity (ExoU secretion), in words” value is “significantly reduced activity”. The “inhibition of ExoU secretion” value in [2] (9 µM) and in data set [2] (60 µM) was “no effect” throughout. Further, the IC50 in data set [2] (read-out: IC50 (Table S1)) is about 140 µM; in data set [2] (read-out: IC50, inhibition of secretion of T3SS effector ExoU), 140 µM. The “Fla fliC (Table 2)” value in data set [3] is listed as “NE^d”. Also, in [3], the “effect on FliC secretion, in words” value is “no significant effect”. Also, the “effect on FliD secretion, in words” value in data set [3] was “no significant effect”. Further, the “bacterial viability in broth culture” value in the data set with Y. pseudotuberculosis and in the data set with P. aeruginosa (PAO1) was “did not affect bacterial viability” each time. In data set [4], the “concentrations at which inhibition of SipC and SipA secretion was seen” value is “greater than 30 μM”. Besides, in data set [4], the “lowest known inhibitory concentration (∼), SipAC secretion” value is listed as “∼30 SipAC^b μM”. In [5] (9 μM, EBs collected at 48 hpi, fresh monolayers 24 h), the “inhibition of formation of infectious progeny” value is recorded as “not”. The “decrease of primary inclusion formation” value in data set [5] (9 μM, HeLa cells, 24 hpi) is “not”. In data set [5] (Table 2, Chlamydiales), the “lowest known inhibitory concentration (∼), cell-based infection assay, Chlamydia” value was “NE^d”.
With `C/C=C\C=C\[C@@H]1O[C@](O)([C@H](CC)C(=O)NC/C=C/C=C(\C)[C@@H](OC)[C@@H](C)[C@@H]2O[C@H](/C=C/C=C/C=C(\C)C(=O)c3c(O)ccn(C)c3=O)[C@H](O)[C@@H]2O)[C@H](O)[C@H](O)C1(C)C` [Aurodox], in the data set with Ssa-Esc T3SS, EPEC/EHEC [6] (ref [103]), the “IC50, EspABCD secretion” value is reported as 0.5 μg/ml EspABCD^b.
Consider `O=C/C=C/c1ccccc1` [Cinnamaldehyde], for which, in data set [7] (footnotes c and e: cell-based infection assay, SipAB biochemical assay, ref [106]), the “lowest known inhibitory concentration (∼), SPI-1, SipAB” value is on record as “∼100^c SipAB^e μM”.
Consider `O=C(O[C@@H]1Cc2c(O)cc(O)cc2O[C@@H]1c1cc(O)c(O)c(O)c1)c1cc(O)c(O)c(O)c1` [Epigallocatechin gallate], for which, in data set [8], the “lowest known inhibitory concentration (∼), Sips secretion” value is reported as “∼12μg/ml Sips^b”. Besides, the “lowest known inhibitory concentration (∼), EspB secretion” value in the data set with Ssa-Esc T3SS, EPEC/EHEC [6] (ref [87]) is listed as “∼16 μg/ml EspB^b”. Moreover, in data set [9], the “lowest known inhibitory concentration (∼), Yops secretion” value was “∼16 μg/ml Yops^b”. Besides, the IC50 in the data set on Ssa-Esc T3SS, EPEC/EHEC [10] was 1.8 µM.
`O=[N+]([O-])c1cc(CN2CCN(c3ccccc3)CC2)c(O)c2ncccc12` [INP1750]: in data set [11], the 50% effective concentration (EC50) was 12.4 µM. Further, the “MIC, Chlamydia” value in [12] ([68]) is reported as 25 MIC^c μM. Besides, in data set [13] ([68]), the “lowest known inhibitory concentration (∼), PA” value is “∼80^c μM”.
As for `O=[N+]([O-])c1cc(CN2CCN(c3ccc(F)cc3)CC2)c(O)c2ncccc12` [INP1855], in [11], the EC50 was 6.3 µM. Besides, the “MIC, Chlamydia” value in data set [12] ([69]) is reported as 3.13 MIC^c μM. Besides, the “lowest known inhibitory concentration (∼), PA” value in data set [13] ([69]) is given as “∼60^c μM”.
On to `O=C(N/N=C/c1ccc(O)cc1O)c1ccc([N+](=O)[O-])cc1` [ME0055], for which the “lowest known inhibitory concentration (∼), LEE genes” value with Ssa-Esc T3SS, EPEC/EHEC [14] (ref [76]) is “∼20 LEE genes^e μM”.
With `C/C=C(\C)C(O)C(C)/C=C(C)/C=C/C/C(C)=C/Cc1[nH]c(OC)cc(=O)c1C` (centres unmarked) [Mer-A 2026B], the “lowest known inhibitory concentration (∼), YopM translocation” value in [15] is “∼36; ∼9 YopM^f μM”.
Take `O=c1c(O)c(-c2cc(O)c(O)c(O)c2)oc2cc(O)cc(O)c12` [Myricetin]: in [16] (ref [107]), the “lowest known inhibitory concentration (∼), SipA/B translocation” value is listed as “∼4 μg/ml SipA/B^f”.
Take `C=CCc1ccc(Oc2cc(CC=C)cc(O)c2O)cc1` [Obovatol]: the IC50 in data set [7] (cell-based infection assay, ref [89]) was 19.8 µM.
As for `C/C=C(\C)[C@H](O)[C@H](C)/C=C(C)/C=C/C/C(C)=C/Cc1nc(OC)c(OC)c(O)c1C` [Piercidin A1], the “lowest known inhibitory concentration (∼), YopM translocation” value in data set [15] is recorded as “∼36; ∼9 YopM^f μM”.
On to `COCCn1c2c([n+](Cc3cnccn3)c1C)C(=O)c1ccccc1C2=O` [Sepantronium bromide (YM155), Sepantronium bromide], for which the “lowest known inhibitory concentration (∼), SseK1/SseK2, NleB” value in the data set on Ssa-Esc T3SS, EPEC/EHEC [14] (ref [110]) is “∼2 SseK1/SseK2^e, NleB^e μM”.
As for `Cc1ccc(C(C)C)c(O)c1` [Thymol], the “lowest known inhibitory concentration (∼), SipA translocation” value in data set [16] (ref [90]) is on record as “∼0.2 mM SipA^f”.
Regarding Tannic acid, the IC50 with Ssa-Esc T3SS, EPEC/EHEC [10] is 0.65 µM.

The term solubility denotes how much of the substance goes into solution per volume. In general, IC50 refers to the point on the concentration scale where inhibition reaches its midpoint. The term EC50 denotes the concentration at which the effect is half-maximal.
